Data published in paper PMC10695737, “Crystal Modifications of a Cyclic Guanosine Phosphorothioate Analogue, a Drug Candidate for Retinal Neurodegenerations” (ChemistryOpen, 2023).
In brackets after ≈: the same amount, converted by molar mass.

How the values were obtained:
Assay type in all cases: physicochemical
[1] = Phase solubility in deionized water (HPLC); conditions: for solubility at 24 h: deionized water, thermodynamic from solid
Description: (§1) The pH‐solubility profile of cGMPSA salts and free acid was determined by phase solubility techniques.[18] Briefly, saturated mixtures of the compound were prepared by adding excess amount to 4 mL vials containing 2 mL deionized water, an acidic buffer (0.1 M HCl(aq), pH 1), or a basic buffer (0.1 M NaOH(aq), pH 13). They were allowed to equilibrate for 24 h using mild agitation before recording the pH. The clear solution was separated from the solids by filtration with a Cytiva Whatman™ Mini‐Uniprep™ polypropylene 0.45 μm filter device and diluted to an appropriate analytical concentration where needed. The sample was then analyzed by HPLC, and the solubility determined by integrating the area of the peak of interest against a standard curve. The solids were also analyzed by XRPD to record the crystal modification obtained.

[2] = Polymorph screen, approximate solubility in solvents (UHPLC); conditions: thermodynamic from solid
Description: A polymorph screen was done for cGMPSA‐TEA with a similar approach. An excess of the compound was slurried in a range of solvents, typically 20–40 mg in 1 mL. For screens where enough solid material was obtained, it was analyzed by XRPD to record the crystal modification.

[3] = Dynamic vapor sorption (DVS), water sorption as Δm; conditions: for Water sorption Δm: 25 °C
Description: The samples were analyzed at 25 °C with a Surface Measurements Systems DVS Advantage. A sample was weighted into a weighing pan and its mass was monitored while it was exposed to different relative humidities (%RH=%P/P0). Before the analysis, the weighing pan was subject to an antistatic program.
The analysis program consisted of two cycles. In each cycle, the relative humidity was increased stepwise up to 95 % RH (starting from 0 % RH, 9 steps with 10 % and one step with 5 %) and then decreased stepwise to 0 % RH again. In both sorption/desorption cycles, at each step, the sample was kept at the set relative humidity until dm/dt <0.002 %, over 15 min.

[4] = pH-dependent solubility in basic buffer NaOH(aq); conditions: 0.1 M NaOH(aq) basic buffer, aqueous buffer, thermodynamic from solid, pH 13, read-out: Solubility in 0.1M NaOH(aq), mg / mL (SD)
Description: as §1

[5] = pH-dependent solubility in acidic buffer 0.1 M HCl(aq); conditions: 0.1 M HCl(aq) acidic buffer, simulated gastric fluid, thermodynamic from solid, pH 1, read-out: Solubility in 0.1M HCl(aq), µg / mL (SD)
Description: as §1

O=c1c2nc(Br)n(C3OC4COP(O)(=S)OC4C3O)c2nc2[nH]c(-c3ccccc3)cn12 (centres unmarked) [cGMPSA‐TEA]
pH of mixture ([1]; aqueous solubility measurements, supplement): 4,38 | pH at saturation solubility ([1]; deionized H2O, quadruplicates): 4.4 (±0.4) | solubility at 24 h ([1]; pH 4.38, water, supplement, read-out: Aqueous solubility measurements): 8900 µg/mL (≈ 16500 µM) | solubility at 24 h ([1]; pH 4.4, water, deionized H2O, quadruplicates, read-out: Solubility): 8800 µg/mL (≈ 16300 µM) | solubility ([2]; aqueous with cosolvent or surfactant or cyclodextrin, solvent EtOH+H2O 1 : 1 v/v, solution): > 40000 µg/mL | solubility ([2]; aqueous with cosolvent or surfactant or cyclodextrin, solvent MeCN+H2O 1 : 1 v/v, solution): > 40000 µg/mL | solubility ([2]; aqueous with cosolvent or surfactant or cyclodextrin, solvent MeOH+H2O 1 : 1 v/v, solution): > 40000 µg/mL | solubility ([2]; aqueous with cosolvent or surfactant or cyclodextrin, solvent THF+H2O 1 : 1 v/v, solution): > 40000 µg/mL | solubility ([2]; organic solvent or mixture, solvent 2‐PrOH): 105 µg/mL (≈ 194 µM) | solubility ([2]; organic solvent or mixture, solvent Acetone): 285 µg/mL (≈ 527 µM) | solubility ([2]; organic solvent or mixture, solvent DMF, solution): > 40000 µg/mL | solubility ([2]; organic solvent or mixture, solvent DMSO, solution): > 40000 µg/mL | solubility ([2]; organic solvent or mixture, solvent Dichloromethane): 30 µg/mL (≈ 55.5 µM) | solubility ([2]; organic solvent or mixture, solvent Diethyl ether): 3 µg/mL (≈ 5.55 µM) | solubility ([2]; organic solvent or mixture, solvent Dimethoxyethane): 15 µg/mL (≈ 27.8 µM) | solubility ([2]; organic solvent or mixture, solvent Dioxane): 30 µg/mL (≈ 55.5 µM) | solubility ([2]; organic solvent or mixture, solvent EtOAc): 5 µg/mL (≈ 9.25 µM) | solubility ([2]; organic solvent or mixture, solvent EtOH): 1610 µg/mL (≈ 2980 µM) | solubility ([2]; organic solvent or mixture, solvent EtOH+THF 1 : 1 v/v, solution): > 40000 µg/mL | solubility ([2]; organic solvent or mixture, solvent MeCN): 114 µg/mL (≈ 211 µM) | solubility ([2]; organic solvent or mixture, solvent MeOH): 40 µg/mL (≈ 74 µM) | solubility ([2]; organic solvent or mixture, solvent MeTHF): 10 µg/mL (≈ 18.5 µM) | solubility ([2]; organic solvent or mixture, solvent THF): 28 µg/mL (≈ 51.8 µM) | solubility ([2]; organic solvent or mixture, solvent i‐PrOAc): 10 µg/mL (≈ 18.5 µM) | solubility ([2]; organic solvent or mixture, solvent n‐BuOH): 210 µg/mL (≈ 389 µM) | Water sorption Δm ([3]; 0 % RH, after final desorption cycle 2 (D2)): −1.0% | Water sorption Δm ([3]; 30 % RH, desorption cycle 2 (D2)): 3.5% | Water sorption Δm ([3]; 30 % RH, sorption cycle 1 (S1)): 3.4% | Water sorption Δm ([3]; 60 % RH, desorption cycle 2 (D2)): 4.8% | Water sorption Δm ([3]; 60 % RH, sorption cycle 1 (S1)): 4.0% | Water sorption Δm ([3]; 95 % RH, desorption cycle 2 (D2)): 5.2% | Water sorption Δm ([3]; 95 % RH, sorption cycle 1 (S1)): 5.0% | change in mass (Δm) ([3]; at 95 % relative humidity (maximum RH), stated in text): about 5% | solubility at 24 h [4]: 51600 µg/mL (≈ 95500 µM) | solubility at 24 h [5]: 5 µg/mL (≈ 9.25 µM)
